The subject of the experiment is Mycosphaerella graminicola; Anamorph: Septoria tritici; Bayer Code SEPTTR. Nature of the experiment: Leaf blotch of wheat, foliar fungicide treatment, one day protectant (1DP) or three day curative (3DC). The experiment is classed as in vivo, Septoria tritici on wheat plants (variety Yuma). The settings on record: Zymoseptoria tritici.
Setting [1] is: 24 h, one day protectant (1DP), 25 ppm, rating of percent disease control, read-out: SETTTR 1DP 25 ppm.
[2] abbreviates: 24 h, one day protectant (1DP), rating of percent disease control, read-out: SEPTTR 1DP 100 ppm.
The mark [3] stands for this setting: 72 h, three day curative (3DC), 25 ppm, rating of percent disease control, read-out: SEPTTR 3DC 25 ppm.
The mark [4] stands for this setting: 72 h, three day curative (3DC), rating of percent disease control, read-out: SEPTTR 3DC 100 ppm.
[5] abbreviates: 24 h, one day protectant (1DP), 25 ppm, percent disease control rating, read-out: SETTTR 1DP 25 ppm.
[6] abbreviates: 24 h, one day protectant (1DP), percent disease control rating, read-out: SEPTTR 1DP 100 ppm.
[7] abbreviates: 72 h, three day curative (3DC), 25 ppm, percent disease control rating, read-out: SEPTTR 3DC 25 ppm.
The mark [8] stands for this setting: 72 h, three day curative (3DC), percent disease control rating, read-out: SEPTTR 3DC 100 ppm.
The mark [9] stands for this setting: 24 h, one day protectant, 25 ppm, rating of percent disease control, read-out: SETTTR 1DP 25 ppm.
Setting [10] is: 24 h, one day protectant, rating of percent disease control, read-out: SEPTTR 1DP 100 ppm.
Where [11] appears, read: 72 h, three day curative, 25 ppm, rating of percent disease control, read-out: SEPTTR 3DC 25 ppm.
The mark [12] stands for this setting: 72 h, three day curative, rating of percent disease control, read-out: SEPTTR 3DC 100 ppm.
The mark [13] stands for this setting: 24 h, one day protectant (1DP), 25 ppm (first 1DP column), percent control rating, read-out: SETTTR 1DP 25 ppm.
[14] abbreviates: 24 h, one day protectant (1DP), 25 ppm as printed (second 1DP column), percent control rating, read-out: SETTTR 1DP 25 ppm.
The mark [15] stands for this setting: 72 h, three day curative (3DC), 25 ppm, percent control rating, read-out: SEPTTR 3DC 25 ppm.
The mark [16] stands for this setting: 72 h, three day curative (3DC), percent control rating, read-out: SEPTTR 3DC 100 ppm.

Read-outs that look alike come from different tables or passages of the source.

Take `Cc1ccc(COc2ncc(F)c(NNc3ccccc3)n2)cc1` [Compound 766]: the pest or weed control at 25 ppm was in the range of 0 to 25% under setting [1] and 0 to 25% under setting [3]. In addition, the pest or weed control at 100 ppm fell in the range of 51 to 75% under setting [2] and 26 to 50% under setting [4].

As to `CCCCOc1ccc(COc2ncc(F)c(N)n2)cc1` [Compound 537], the pest or weed control at 25 ppm is, setting by setting: under setting [1], 76 to 100%; under setting [3], 76 to 100%. The pest or weed control at 100 ppm reads like this: under setting [2], 76 to 100%; under setting [4], 76 to 100%.

As for `C/C(=N\Nc1nc(OCc2ccc(C)cc2)ncc1F)c1ccc(Cl)nc1` [Compound 301], the pest or weed control at 25 ppm is 26 to 50% under setting [1] and 51 to 75% under setting [3]. The pest or weed control at 100 ppm under setting [2] lay in the range of 26 to 50% and the pest or weed control at 100 ppm under setting [4] lay in the range of 76 to 100%.

`CCOC(=O)COC(=O)Nc1nc(OCc2cccc(C#N)c2)ncc1F` [Compound 782]: the pest or weed control at 25 ppm was in the range of 0 to 25% under setting [1] and 26 to 50% under setting [3]. Moreover, the pest or weed control at 100 ppm was in the range of 26 to 50% under setting [2] and 76 to 100% under setting [4].

The compound `Fc1cnc(OCc2ccc3c(c2)OCO3)nc1NCc1cccs1` [Compound 839] came in with a pest or weed control at 200 ppm (24 h, % disease control rating, one day protectant, 200 ppm) of 76 to 100%.

`Nc1nc(OCc2cscn2)ncc1F` [Compound 275]: the pest or weed control at 25 ppm by setting is: under setting [1], 76 to 100%; under setting [3], 76 to 100%. Moreover, the pest or weed control at 100 ppm under setting [2] was in the range of 76 to 100% and the pest or weed control at 100 ppm under setting [4] lay within 76 to 100%.

As for `CN(Oc1ncc(F)c(N)n1)C(=O)OC(C)(C)C` [Compound 50, O-(4-Amino-5-fluoropyrimidin-2-yl)-t-butyl N-methyl-N-hydroxycarbamate], the pest or weed control at 25 ppm by setting is: under setting [5], 26 to 50%; under setting [7], 26 to 50%. For the same compound, the pest or weed control at 100 ppm is 76 to 100% under setting [6] and 76 to 100% under setting [8].

Take `Fc1ccc(COc2ncc(F)c(NC(=S)NCc3ccccc3F)n2)cc1` [Compound 572]: the pest or weed control at 25 ppm reads like this: under setting [9], 26 to 50%; under setting [11], 26 to 50%. The pest or weed control at 100 ppm runs as follows: under setting [10], 76 to 100%; under setting [12], 51 to 75%.

Turning to `O=C(Nc1nc(O)ncc1F)c1ccc(Cl)nc1` [Compound 965], the pest or weed control at 25 ppm lay in the range of 26 to 50% under setting [13], 76 to 100% under setting [14] and 26 to 50% under setting [15]. Under setting [16], the pest or weed control at 100 ppm is 26 to 50%.

`Cc1ccc(COc2ncc(F)c(/N=N/c3ccccc3)n2)cc1` [Compound 992]: the pest or weed control at 25 ppm under setting [13] fell in the range of 0 to 25%, the pest or weed control at 25 ppm under setting [14] lay within 0 to 25% and the pest or weed control at 25 ppm under setting [15] was 0 to 25%. Under setting [16], the pest or weed control at 100 ppm lay in the range of 26 to 50%.

For `Oc1ncc(F)c(N/N=C/c2ccccc2Cl)n1` [Compound 322], the pest or weed control at 25 ppm lay in the range of 0 to 25% under setting [1] and 0 to 25% under setting [3]. Moreover, the pest or weed control at 100 ppm fell in the range of 0 to 25% under setting [2] and 0 to 25% under setting [4].

`C/C=C(C)/C=N/Nc1nc(OCc2cccc(OC)c2)ncc1F` [Compound 285]: the pest or weed control at 25 ppm reads like this: under setting [1], 51 to 75%; under setting [3], 26 to 50%. Moreover, the pest or weed control at 100 ppm lay within 76 to 100% under setting [2] and 26 to 50% under setting [4].

As for `COc1ncc(F)c(NNC(=O)Cc2ccccc2)n1` [Compound 1120], the pest or weed control at 25 ppm is, setting by setting: under setting [13], 0 to 25%; under setting [14], 0 to 25%; under setting [15], 0 to 25%. The pest or weed control at 100 ppm under setting [16] lay within 0 to 25%.

For the compound `COc1cc(COc2ncc(F)c(NSc3ccccc3[N+](=O)[O-])n2)cc(OC)c1` [Compound 685], the pest or weed control at 25 ppm runs as follows: under setting [9], 0 to 25%; under setting [11], 0 to 25%. Moreover, the pest or weed control at 100 ppm reads like this: under setting [10], 76 to 100%; under setting [12], 0 to 25%.

`Cc1cc(Cl)ccc1Oc1ncc(F)c(N)n1` [Compound 246]: the pest or weed control at 25 ppm under setting [1] lay in the range of 0 to 25%. The pest or weed control at 100 ppm under setting [2] lay in the range of 0 to 25%.

In the case of `Nc1nc(SCc2ccc(F)cc2)ncc1F` [Compound 100], the pest or weed control at 25 ppm lay in the range of 0 to 25% under setting [5] and 0 to 25% under setting [7]. For the same compound, the pest or weed control at 100 ppm under setting [6] is 0 to 25% and the pest or weed control at 100 ppm under setting [8] is 0 to 25%.

Turning to `COc1cccc(COc2ncc(F)c(N3CCCCC3)n2)c1` [Compound 407], the pest or weed control at 25 ppm runs as follows: under setting [1], 0 to 25%; under setting [3], 0 to 25%. The pest or weed control at 100 ppm runs as follows: under setting [2], 0 to 25%; under setting [4], 0 to 25%.

Turning to `O=C(Cc1ccccc1)Nc1nc(OCc2cccs2)ncc1F` [Compound 453], the pest or weed control at 25 ppm under setting [1] was in the range of 76 to 100% and the pest or weed control at 25 ppm under setting [3] was in the range of 51 to 75%. Further, the pest or weed control at 100 ppm is, setting by setting: under setting [2], 76 to 100%; under setting [4], 76 to 100%.

For the compound `Oc1ncc(F)c(NOCc2ccccc2)n1` [Compound 1095], the pest or weed control at 25 ppm is 0 to 25% under setting [13], 0 to 25% under setting [14] and 0 to 25% under setting [15]. Moreover, the pest or weed control at 100 ppm under setting [16] lay in the range of 0 to 25%.

Consider `CC[Si](CC)(CC)Nc1nc(OCc2ccc(C)cc2)ncc1F` [Compound 561], for which the pest or weed control at 25 ppm fell in the range of 76 to 100% under setting [9] and 76 to 100% under setting [11]. Further, the pest or weed control at 100 ppm was 76 to 100% under setting [10] and 76 to 100% under setting [12].

Take `CCOCNc1nc(OC(C)c2ccc(F)cc2)ncc1F` (stereo not drawn) [Compound 379]: the pest or weed control at 25 ppm by setting is: under setting [1], 76 to 100%; under setting [3], 51 to 75%. The pest or weed control at 100 ppm is, setting by setting: under setting [2], 76 to 100%; under setting [4], 76 to 100%.

Turning to `O=C(Nc1nc(OCc2ccc(F)cc2)ncc1F)c1cccc(CBr)c1` [Compound 703], the pest or weed control at 25 ppm by setting is: under setting [9], 0 to 25%; under setting [11], 0 to 25%. In addition, the pest or weed control at 100 ppm is 26 to 50% under setting [10] and 0 to 25% under setting [12].

Regarding `COc1cccc(COc2ncc(F)c(N/N=C\c3nc(C)cs3)n2)c1` [Compound 148], the pest or weed control at 25 ppm by setting is: under setting [5], 51 to 75%; under setting [7], 0 to 25%. In addition, the pest or weed control at 100 ppm under setting [6] lay within 51 to 75% and the pest or weed control at 100 ppm under setting [8] fell in the range of 0 to 25%.

With `COc1cccc(COc2ncc(F)c(NC(=O)Cc3ccccc3)n2)c1` [Compound 773], the pest or weed control at 25 ppm was in the range of 26 to 50% under setting [1] and 0 to 25% under setting [3]. The pest or weed control at 100 ppm runs as follows: under setting [2], 76 to 100%; under setting [4], 0 to 25%.

As for `CCCNC(=S)Nc1nc(OCc2cccc(OC)c2)ncc1F` [Compound 119], the pest or weed control at 25 ppm by setting is: under setting [5], 26 to 50%; under setting [7], 51 to 75%. The pest or weed control at 100 ppm is, setting by setting: under setting [6], 76 to 100%; under setting [8], 76 to 100%.

In the case of `CC(C)(C)NNc1nc(OCc2ccc(F)cc2)ncc1F` [Compound 775], the pest or weed control at 25 ppm under setting [1] is 0 to 25% and the pest or weed control at 25 ppm under setting [3] fell in the range of 0 to 25%. The pest or weed control at 100 ppm reads like this: under setting [2], 0 to 25%; under setting [4], 0 to 25%.

Consider `COc1cccc(COc2ncc(F)c(NC(=S)Nc3ccccc3F)n2)c1` [Compound 639], for which the pest or weed control at 25 ppm lay in the range of 76 to 100% under setting [9] and 51 to 75% under setting [11]. Also, the pest or weed control at 100 ppm reads like this: under setting [10], 76 to 100%; under setting [12], 76 to 100%.

Turning to `COc1ccc(CCOc2ncc(F)c(N)n2)cc1` [Compound 645], the pest or weed control at 25 ppm under setting [9] lay in the range of 26 to 50% and the pest or weed control at 25 ppm under setting [11] lay in the range of 0 to 25%. Also, the pest or weed control at 100 ppm under setting [10] lay in the range of 76 to 100% and the pest or weed control at 100 ppm under setting [12] fell in the range of 51 to 75%.

As for `COc1cccc(COc2ncc(F)c(NN3CCOCC3)n2)c1` [Compound 754], the pest or weed control at 25 ppm reads like this: under setting [1], 0 to 25%; under setting [3], 0 to 25%. Also, the pest or weed control at 100 ppm by setting is: under setting [2], 0 to 25%; under setting [4], 26 to 50%.

Consider `C=CCOC(=O)Nc1nc(OCc2ccc(F)cc2)ncc1F` [Compound 985], for which the pest or weed control at 25 ppm is, setting by setting: under setting [13], 76 to 100%; under setting [14], 76 to 100%; under setting [15], 76 to 100%. In addition, the pest or weed control at 100 ppm under setting [16] was in the range of 76 to 100%.

With `C=C(C)COc1ncc(F)c(N)n1` [Compound 256], the pest or weed control at 25 ppm is, setting by setting: under setting [1], 0 to 25%; under setting [3], 0 to 25%. Also, the pest or weed control at 100 ppm reads like this: under setting [2], 0 to 25%; under setting [4], 26 to 50%.

With `COc1ncc(F)c(N/N=C/c2cccs2)n1` [Compound 1024], the pest or weed control at 25 ppm reads like this: under setting [13], 0 to 25%; under setting [14], 0 to 25%; under setting [15], 0 to 25%. Besides, the pest or weed control at 100 ppm under setting [16] was in the range of 0 to 25%.
